Test results taken from patent publication US20180360786A1, “(R)-CARBIDOPA ALONE OR IN COMBINATION WITH A STEROID FOR TREATING PAIN, INFLAMMATION, AN INFLAMMATORY DISEASE, AN IMMUNE OR AUTOIMMUNE DISEASE AND TUMOUR GROWTH” (PROXIMAGEN GROUP LIMITED, priority 2015, published 2018).
Where two headings read alike, the source gives them in different places. Values belong to the compound of their own block, whether it stands above or below them.

Experiments:
[1] = biological target: T1, human aromatic L-amino acid decarboxylase (DOPA decarboxylase) (Homo sapiens, UniProt P20711); experiment: In vitro determination of human aromatic L-amino acid decarboxylase (DOPA decarboxylase) inhibition; type: biochemical; settings: recombinant human DOPA decarboxylase, 500 μM L-Dopa, 60 min pre-incubation
T1 construct: purchased R&D systems 3564-DC
T1 sequence (P20711 1-480): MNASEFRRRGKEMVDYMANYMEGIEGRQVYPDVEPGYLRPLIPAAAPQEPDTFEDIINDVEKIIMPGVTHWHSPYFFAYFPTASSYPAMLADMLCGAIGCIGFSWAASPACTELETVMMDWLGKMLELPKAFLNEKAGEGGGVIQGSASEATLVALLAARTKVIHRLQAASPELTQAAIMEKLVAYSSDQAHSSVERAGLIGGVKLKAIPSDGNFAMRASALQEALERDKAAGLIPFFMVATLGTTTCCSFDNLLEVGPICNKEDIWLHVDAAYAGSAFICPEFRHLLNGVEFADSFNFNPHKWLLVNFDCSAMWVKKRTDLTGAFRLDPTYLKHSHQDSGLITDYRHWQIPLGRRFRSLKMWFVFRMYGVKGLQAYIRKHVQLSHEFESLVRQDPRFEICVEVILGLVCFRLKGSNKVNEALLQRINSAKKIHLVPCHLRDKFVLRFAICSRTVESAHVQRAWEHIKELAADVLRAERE
Procedure: The enzyme reaction of human DOPA decarboxylase was carried out according to the manufacture instructions (R&D systems cat#3564-DC). The assay measured the ability of recombinant human DOPA decarboxylase to convert L-Dopa to dopamine. The dopamine product was measured by its absorbance at 340 nm after derivatization with trinitrobenzene sulphuric acid. Briefly, the reaction was carried out in 50 mM HEPES buffer containing 100 mM NaCl pH 7.2 for 30 min and stopped by inactivation of the enzyme at 95° C. for 2 min. The inhibitory assay was performed by measuring the decarboxylase activity of DOPA decarboxylase with 0.8 μg enzyme, 500 μM L-Dopa, and 100 μM pyridoxal phosphate in the presence or absence of a fixed amount of each compound. Test compounds were pre-incubated for 60 min with DOPA decarboxylase before initiating the assay with the addition of the substrate L-DOPA. Dose response curves were generated to determine the concentration required to inhibit 50% of decarboxylase activity (IC50). Compounds were evaluated in duplicate at 7 concentrations. IC50 values were derived by nonlinear regression analysis.

human VAP-1 (SSAO) = biological target: T2, human VAP-1 (SSAO) (Homo sapiens, UniProt Q16853); experiment: In vitro determination of human VAP-1 (SSAO) inhibition (HRP-coupled Amplex Red, benzylamine substrate); type: biochemical; settings: for IC50: purified recombinant human VAP-1 (SSAO), benzylamine 100 μM, room temperature, about 15 min pre-incubation
T2 construct: made in house
T2 sequence (Q16853 29-763 limits assumed): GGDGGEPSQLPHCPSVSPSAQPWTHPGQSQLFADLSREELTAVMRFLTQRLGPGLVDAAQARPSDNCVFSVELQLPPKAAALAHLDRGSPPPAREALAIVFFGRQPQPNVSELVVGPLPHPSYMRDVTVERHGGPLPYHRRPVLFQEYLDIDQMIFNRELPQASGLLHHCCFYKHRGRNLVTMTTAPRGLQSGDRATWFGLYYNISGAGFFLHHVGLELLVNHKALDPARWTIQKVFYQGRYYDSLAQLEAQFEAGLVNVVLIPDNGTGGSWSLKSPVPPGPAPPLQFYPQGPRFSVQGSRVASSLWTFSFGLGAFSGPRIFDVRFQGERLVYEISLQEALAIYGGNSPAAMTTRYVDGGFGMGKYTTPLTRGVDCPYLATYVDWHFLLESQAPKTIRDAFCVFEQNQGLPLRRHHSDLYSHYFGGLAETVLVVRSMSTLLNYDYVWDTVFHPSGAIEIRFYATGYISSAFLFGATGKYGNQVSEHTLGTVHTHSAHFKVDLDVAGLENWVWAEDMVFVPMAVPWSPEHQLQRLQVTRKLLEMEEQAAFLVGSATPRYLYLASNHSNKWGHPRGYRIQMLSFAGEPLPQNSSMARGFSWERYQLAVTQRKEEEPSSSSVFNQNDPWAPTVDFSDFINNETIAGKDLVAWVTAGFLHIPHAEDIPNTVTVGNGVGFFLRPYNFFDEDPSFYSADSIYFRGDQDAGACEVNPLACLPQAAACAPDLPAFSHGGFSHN
Procedure: This assay is performed at room temperature with purified recombinantly expressed human VAP-1 (SSAO). Enzyme was prepared essentially as described in Ohman et al. (Protein Expression and Purification 46 (2006) 321-331). The enzyme activity is assayed with benzylamine as substrate by utilizing the production of hydrogen peroxide in a horseradish peroxidise (HRP) coupled reaction. Briefly, test compounds are dissolved in dimethyl sulfoxide (DMSO) to a concentration of 10 mM. Dose-response measurements are assayed by either creating 1:10 serial dilutions in DMSO to produce a 7 point curve or by making 1:3 serial dilutions in DMSO to produce 11 point curves. The top concentrations are adjusted depending on the potency of the compounds and subsequent dilution in reaction buffer yielded a final DMSO concentration ≤2%.
In a horseradish peroxidise (HRP) coupled reaction, hydrogen peroxide oxidation of 10-acetyl-3,7-dihydroxyphenoxazine produces resorufin, which is a highly fluorescent compound (Zhout and Panchuk-Voloshina. Analytical Biochemistry 253 (1997) 169-174; AmplexR Red Hydrogen Peroxide/peroxidise Assay kit, Invitrogen A22188). Enzyme and compounds in 50 mM sodium phosphate, pH 7.4 are set to pre-incubate in flat-bottomed microtiter plates for approximately 15 minutes before initiating the reaction by addition of a mixture of HRP, benzylamine and Amplex reagent. Benzylamine concentration is fixed at a concentration corresponding to the Michaelis constant, determined using standard procedures. Fluorescence intensity is then measured at several time points during 1-2 hours, exciting at 544 nm and reading the emission at 590 nm. […] The inhibition is measured as % decrease of the signal compared to a control without inhibitor (only diluted DMSO). […] Data is fitted to a four parameter logistic model and IC50 values are calculated, for example by using the GraphPad Prism 4 or XLfit 4 programs.

[2] = tested on: CFA induced hypersensitivity; experiment: CFA induced hypersensitivity in rat, weight bearing (incapacitance tester); type: in vivo; settings: dosed 24 hours post CFA, 1 and 3 hours post treatment
Procedure: (§1) Assessment of the anti-hyperalgesic properties of (R)-Carbidopa was determined through measurement of weight bearing following CFA induced hypersensitivity. Naive rats distribute their body weight equally between the two hind paws. However, when the injected (left) hind paw is painful, the weight is re-distributed so that less weight is put on the affected paw (decrease in weight bearing on injured paw). Weight bearing through each hind limb was measured using a rat incapacitance tester (Linton Instruments, UK). Rats were placed in the incapacitance tester with the hind paws on separate sensors and the average force exerted by both hind limbs was recorded over 4 seconds. The injection of CFA also induces an oedema that can be assessed by paw volume; this is measured using a plethysmometer. The rat's hind paw is placed into the cylinder containing a solution and the volume of displaced liquid determines the paw volume. Naive male, Sprague Dawley rats were acclimatised with food and water available ad libitum. Habituation to the incapacitance tester was performed. Baseline weight bearing and paw volume recordings were taken prior to induction of insult. Inflammatory hypersensitivity was induced by intraplantar injection of CFA (100 μl of 1 mg/ml solution) into the left hind paw. A pre-treatment weight bearing and paw volume measurement was taken to assess hypersensitivity 23 hours post-CFA. Animals were then ranked and randomised according to CFA window in a Latin square design. […] Data were analysed by comparing treatment groups to the vehicle control group at each time point. Weight bearing (g) readings were taken for both right and left hind paws and the difference calculated. Data is expressed as % reversal of the hypersensitivity to pain. Paw Volume (mL) readings were taken for the left hind paws. Data are expressed as % reversal of the oedema. Calculation: (post dose reading−pre dose reading)/(naïve reading−pre dose reading)×100, where naive weight bearing difference−pre dose weight bearing difference is defined as the CFA window to be reversed. […]

CFA induced paw oedema = CFA induced paw oedema in rat, paw volume (plethysmometer); type: in vivo; settings: dosed 24 hours post CFA, 3 hours post treatment
Procedure: as §1, with “plethysmometer.” for “plethysmometer. The rat's hind paw is placed into the cylinder containing a solution and the volume of displaced liquid determines the paw volume. Naive male, Sprague Dawley rats were acclimatised with food and water available ad libitum. Habituation to the incapacitance tester was performed. Baseline weight bearing and paw volume recordings were taken prior to induction of insult. Inflammatory hypersensitivity was induced by intraplantar injection of CFA (100 μl of 1 mg/ml solution) into the left hind paw. A pre-treatment weight bearing and paw volume measurement was taken to assess hypersensitivity 23 hours post-CFA. Animals were then ranked and randomised according to CFA window in a Latin square design.”

- IC50 ([1]; read-out: IC50 for inhibition of human aromatic L-amino acid decarboxylase): 190 nM
- IC50 (human VAP-1 (SSAO)): 142 nM
SMILES: C[C@](Cc1ccc(O)c(O)c1)(NN)C(=O)O (single isomer, unassigned) [(S)-Carbidopa]

SMILES: COc1ccc2c(c1)c(CC(=O)O)c(C)n2C(=O)c1ccc(Cl)cc1 [Indomethacin, indomethacin]
- reversal of the hypersensitivity measured using weight bearing ([2]; indomethacin 10 mg/kg): marked reversal of the hypersensitivity
- reduction of paw oedema (CFA induced paw oedema; indomethacin 10 mg/kg): significant reduction on paw oedema

SMILES: C[C@]12C=CC(=O)C=C1CC[C@@H]1[C@@H]2[C@@H](O)C[C@@]2(C)[C@H]1CC[C@]2(O)C(=O)CO [Prednisolone, prednisolone]
- inhibition of the hypersensitivity response (weight bearing), Part B, FIG. 3 ([2]; 0.3-10 mg/kg alone): dose-dependently inhibited the hypersensitivity response

- IC50 ([1]; did not inhibit up to the maximum concentration tested, read-out: inhibition of human aromatic L-amino acid decarboxylase (IC50)): > 3000 nM
- selectivity for SSAO/VAP-1 over the enzyme DOPA decarboxylase (human VAP-1 (SSAO); comparison of VAP-1 and DOPA decarboxylase inhibition): surprising selectivity
- IC50 (human VAP-1 (SSAO)): 148 nM
SMILES: C[C@](Cc1ccc(O)c(O)c1)(NN)C(=O)O [(R)-Carbidopa, (R)-carbidopa]
- inhibition of the hypersensitivity response (weight bearing), Part A, FIG. 1 ([2]; 3-30 mg/kg alone): dose-dependently inhibited the hypersensitivity response
- reduction of paw volume (oedema), Part A, FIG. 2 (CFA induced paw oedema; 3-30 mg/kg alone): significant reduction of paw volume
